Source: patent publication US20230203485A1, “METHODS FOR MODULATING MHC-I EXPRESSION AND IMMUNOTHERAPY USES THEREOF” (Dana-Farber Cancer Institute, Inc., priority 2020, published 2023)

Tested on: class I pathway and IFN-γ pathway proteins (STAT1/p-STAT1) in MCC lines
Assay: Whole proteome analysis (TMT LC-MS/MS) of MCC lines with and without IFNγ
Format: cell-based, human
Settings: MCC lines non-IFN-responsive by flow cytometry
Experimental: FIG. 2D is a proteomics heatmap depicting the relative expression of key IFN-γ pathway components in 4 of the MCC lines, both at baseline and after IFN-γ treatment.
FIG. 2E comprises graphs summarizing a targeted analysis of normalized STAT1 peptide counts (left) and STAT-Y701y phosphosite counts (right) between untreated and IFN-γ-treated cell lines.
Protein expression of MCC cell lines was assessed as described previously (Mertins et al. (2018) Nature Protocols 13 (7): 1632-61. Briefly, cell pellets of MCC cell lines with and without IFNγ treatment were lysed in 8M Urea and digested to peptides using LysC and Trypsin (Promega). 400 μg peptides were labeled with TMT10 reagents (Thermo Fisher, 126-MCC290, 127N-MCC350_IFN, 127C MCC275_IFN, 128N MCC275, 128C MCC350, 129N_MCC301_IFN, 129C-MCC277, 130N-MCC290_IFNy, 130C MCC277 IFN, 131 MCC301) and then pooled for subsequent fractionation and analysis. Pooled peptides were separated into 24 fractions using offline high pH reversed phase fractionation. 1 μg per fraction was loaded onto an analytical column (20-30 cm, 1.9 μm C18 Reprosil beads (Dr. Maisch HPLC GmbH), packed in-house PicoFrit 75 μM inner diameter, 10 μM emitter (New Objective)). […] During data dependent acquisition, peptides were analyzed on a Fusion Lumos (Thermo Scientific). […]

Q: Which STAT1/p-STAT1 protein expression does the source give for “IFN-y: type II interferon, recombinant human, used to treat MCC cells” here?
A: The STAT1/p-STAT1 protein expression was “lack of IFN-induced STAT1/p-STAT1 protein expression”.
